Measured values: US20150105252A1, “SUBSTITUTED PYRAZOLES AS HERBICIDES” (E I DU PONT DE NEMOURS AND COMPANY, priority 2013, published 2015)

Tests used:
[1] = test system: crabgrass, large; test: Test C postemergence; assay type: in vivo, Digitaria sanguinalis; settings: for Plant response rating (scale of 0 to 100 where 0 is no effect and 100 is complete control), Crabgrass, Large: Postemergence, 31 g ai/ha, visually evaluated after 13 to 15 days; for Crabgrass, Large plant response rating / Plant response rating, Crabgrass, Large: postemergence; for Crabgrass, Large plant response rating: 62 g ai/ha, scale 0 to 100
Outline: (§1)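 Visual control ratings on a 0–100 scale (100 = complete control) made against untreated controls after 13 to 15 days in greenhouse. Compounds applied in surfactant-containing solvent mixture, either preemergence to loam/sand-sown seeds or postemergence to 1- to 4-leaf plants (2–18 cm) in peat medium.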

[2] = test system: pigweed; test: Test C preemergence; assay type: in vivo, Amaranthus retroflexus; settings: for Plant response rating (scale of 0 to 100), Pigweed: Preemergence, 250 g ai/ha
Outline: as §1

[3] = test system: lambsquarters; test: Test C preemergence; assay type: in vivo, Chenopodium album; settings: for Plant response rating (scale of 0 to 100), Lambsquarters: Preemergence, 250 g ai/ha
Outline: as §1

[4] = test system: oilseed rape; test: Test C postemergence; assay type: in vivo, Brassica napus; settings: for Plant response rating (scale of 0 to 100 where 0 is no effect and 100 is complete control), Oilseed Rape: Postemergence, 31 g ai/ha, visually evaluated after 13 to 15 days; for Oilseed Rape plant response rating / Plant response rating, Oilseed Rape: postemergence; for Oilseed Rape plant response rating: 62 g ai/ha, scale 0 to 100
Outline: as §1

[5] = test system: foxtail, giant; test: Test A preemergence; assay type: in vivo, Setaria faberii; settings: preemergence
Outline: (§2)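 Both timings tested concurrently in loam/sand soil: preemergence by directed soil spray, postemergence on plants of 2–10 cm at the one- to two-leaf stage. Greenhouse holding period was approximately 10 days before visual injury assessment (0–100, 0 = no effect).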

[6] = test system: johnsongrass; test: Test C postemergence; assay type: in vivo, Sorghum halepense; settings: for Plant response rating (scale of 0 to 100 where 0 is no effect and 100 is complete control), Johnsongrass: Postemergence, 31 g ai/ha, visually evaluated after 13 to 15 days; for Johnsongrass plant response rating / Plant response rating, Johnsongrass: postemergence; for Johnsongrass plant response rating: 62 g ai/ha, scale 0 to 100
Outline: as §1

[7] = test system: johnsongrass; test: Test C preemergence; assay type: in vivo, Sorghum halepense; settings: for Plant response rating (scale of 0 to 100), Johnsongrass: Preemergence, 250 g ai/ha
Outline: as §1

[8] = test system: blackgrass; test: Test C postemergence; assay type: in vivo, Alopecurus myosuroides; settings: for Plant response rating (scale of 0 to 100 where 0 is no effect and 100 is complete control), Blackgrass: Postemergence, 31 g ai/ha, visually evaluated after 13 to 15 days; for Blackgrass plant response rating / Plant response rating, Blackgrass: postemergence; for Blackgrass plant response rating: 62 g ai/ha, scale 0 to 100
Outline: as §1

[9] = test system: pigweed; test: Test A preemergence; assay type: in vivo, Amaranthus retroflexus; settings: preemergence
Outline: as §2

[10] = test system: blackgrass; test: Test C preemergence; assay type: in vivo, Alopecurus myosuroides; settings: for Plant response rating (scale of 0 to 100), Blackgrass: Preemergence, 250 g ai/ha
Outline: as §1

[11] = test system: waterhemp; test: Test C postemergence; assay type: in vivo, Amaranthus rudis; settings: for Plant response rating (scale of 0 to 100 where 0 is no effect and 100 is complete control), Waterhemp: Postemergence, 31 g ai/ha, visually evaluated after 13 to 15 days; for Waterhemp plant response rating / Plant response rating, Waterhemp: postemergence; for Waterhemp plant response rating: 62 g ai/ha, scale 0 to 100
Outline: as §1

[12] = test system: velvetleaf; test: Test A preemergence; assay type: in vivo, Abutilon theophrasti; settings: preemergence
Outline: as §2

[13] = test system: barnyardgrass; test: Test B flood; assay type: in vivo, Echinochloa crus-galli; settings: 250 g ai/ha, visual rating on 0 to 100 scale (0 no effect, 100 complete control), 13 to 15 days
Outline: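 2-leaf plants; pots flooded 3 cm over soil; compound added to paddy water, depth kept constant. Greenhouse 13–15 d. Visual rating vs controls, 0–100 scale (100 = complete control); dash = no result.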

[14] = test system: wheat; test: Test A preemergence; assay type: in vivo, Triticum aestivum; settings: preemergence
Outline: as §2

[15] = 250 g ai/ha, scale 0 to 100 (0 no effect, 100 complete control)
[16] = 125 g ai/ha, scale 0 to 100, 0 no effect, 100 complete control
[17] = preemergence, 31 g ai/ha, visual rating, scale 0 to 100 (0 no effect, 100 complete control), 13 to 15 days
[18] = preemergence, 62 g ai/ha, scale 0 to 100 (0 no effect, 100 complete control), 13 to 15 days
[19] = preemergence, 125 g ai/ha, scale 0 to 100, 0 is no effect, 100 is complete control
[20] = 125 g ai/ha, visual injury, 0 to 100 scale, approx. 10 days
[21] = 500 g ai/ha, visual injury after approx. 10 days, 0 to 100 scale (0 no effect, 100 complete control)
[22] = preemergence, 125 g ai/ha, 13 to 15 days, scale 0 to 100, 0 = no effect, 100 = complete control

Compound: CCCNC(=O)c1cc(CC)n(Cc2nc(C(F)(F)F)nn2C)n1 [Compound 109]
- Plant response rating (scale of 0 to 100 where 0 is no effect and 100 is complete control), Crabgrass, Large [1]: 5
- Crabgrass, Large plant response rating [1]: 10
- Plant response rating, Crabgrass, Large [1, 15]: 45
- Plant response rating, Crabgrass, Large [1, 16]: 10
- Plant response rating (scale of 0 to 100), Pigweed [2]: 100
- Pigweed plant response rating [2, 17]: 70
- Pigweed plant response rating [2, 18]: 100
- Pigweed plant response rating [2, 19]: 100
- Plant response rating (scale of 0 to 100), Lambsquarters [3]: 100
- Lambsquarters plant response rating [3, 17]: 100
- Lambsquarters plant response rating [3, 18]: 100
- Lambsquarters plant response rating [3, 19]: 100
- Plant response rating (scale of 0 to 100 where 0 is no effect and 100 is complete control), Oilseed Rape [4]: 40
- Oilseed Rape plant response rating [4]: 45
- Plant response rating, Oilseed Rape [4, 15]: 50
- Plant response rating, Oilseed Rape [4, 16]: 45
- Foxtail, Giant plant response rating [5, 20]: 100
- Foxtail, Giant plant response rating [5, 21]: 100
- Plant response rating (scale of 0 to 100 where 0 is no effect and 100 is complete control), Johnsongrass [6]: 5
- Johnsongrass plant response rating [6]: 5
- Plant response rating, Johnsongrass [6, 15]: 10
- Plant response rating, Johnsongrass [6, 16]: 5
- Plant response rating (scale of 0 to 100), Johnsongrass [7]: 100
- Johnsongrass plant response rating [7, 17]: 80
- Johnsongrass plant response rating [7, 18]: 90
- Johnsongrass plant response rating [7, 19]: 100
- Plant response rating (scale of 0 to 100 where 0 is no effect and 100 is complete control), Blackgrass [8]: 5
- Blackgrass plant response rating [8]: 5
- Plant response rating, Blackgrass [8, 15]: 15
- Plant response rating, Blackgrass [8, 16]: 10
- Pigweed plant response rating [9, 20]: 100
- Pigweed plant response rating [9, 21]: 100
- Plant response rating (scale of 0 to 100), Blackgrass [10]: 100
- Blackgrass plant response rating [10, 17]: 100
- Blackgrass plant response rating [10, 18]: 100
- Blackgrass plant response rating [10, 19]: 100
- Plant response rating (scale of 0 to 100 where 0 is no effect and 100 is complete control), Waterhemp [11]: 35
- Waterhemp plant response rating [11]: 35
- Plant response rating, Waterhemp [11, 15]: 75
- Plant response rating, Waterhemp [11, 16]: 60
- Velvetleaf plant response rating [12, 20]: 70
- Velvetleaf plant response rating [12, 21]: 100
- Plant response rating, Barnyardgrass [13]: 0
- Wheat plant response rating [14, 20]: 30
- Wheat plant response rating [14, 21]: 90

Compound: CCONC(=O)c1cc(CC)n(Cc2ccnc(OC(F)F)c2)n1 [Compound 131]
- Plant response rating (scale of 0 to 100 where 0 is no effect and 100 is complete control), Crabgrass, Large [1]: 5
- Crabgrass, Large plant response rating [1]: 5
- Plant response rating, Crabgrass, Large [1, 15]: 40
- Plant response rating, Crabgrass, Large [1, 16]: 15
- Plant response rating (scale of 0 to 100), Pigweed [2]: 100
- Pigweed plant response rating [2, 17]: 100
- Pigweed plant response rating [2, 18]: 100
- Plant response rating, Pigweed [2, 22]: 100
- Plant response rating (scale of 0 to 100), Lambsquarters [3]: 100
- Lambsquarters plant response rating [3, 17]: 98
- Lambsquarters plant response rating [3, 18]: 100
- Plant response rating, Lambsquarters [3, 22]: 100
- Plant response rating (scale of 0 to 100 where 0 is no effect and 100 is complete control), Oilseed Rape [4]: 30
- Oilseed Rape plant response rating [4]: 35
- Plant response rating, Oilseed Rape [4, 15]: 60
- Plant response rating, Oilseed Rape [4, 16]: 40
- Foxtail, Giant plant response rating [5, 20]: 90
- Foxtail, Giant plant response rating [5, 21]: 100
- Plant response rating (scale of 0 to 100 where 0 is no effect and 100 is complete control), Johnsongrass [6]: 0
- Johnsongrass plant response rating [6]: 0
- Plant response rating, Johnsongrass [6, 15]: 10
- Plant response rating, Johnsongrass [6, 16]: 0
- Plant response rating (scale of 0 to 100), Johnsongrass [7]: 95
- Johnsongrass plant response rating [7, 17]: 20
- Johnsongrass plant response rating [7, 18]: 65
- Plant response rating, Johnsongrass [7, 22]: 85
- Plant response rating (scale of 0 to 100 where 0 is no effect and 100 is complete control), Blackgrass [8]: 5
- Blackgrass plant response rating [8]: 5
- Plant response rating, Blackgrass [8, 15]: 20
- Plant response rating, Blackgrass [8, 16]: 10
- Pigweed plant response rating [9, 20]: 100
- Pigweed plant response rating [9, 21]: 100
- Plant response rating (scale of 0 to 100), Blackgrass [10]: 98
- Blackgrass plant response rating [10, 17]: 40
- Blackgrass plant response rating [10, 18]: 80
- Plant response rating, Blackgrass [10, 22]: 95
- Plant response rating (scale of 0 to 100 where 0 is no effect and 100 is complete control), Waterhemp [11]: 55
- Waterhemp plant response rating [11]: 55
- Plant response rating, Waterhemp [11, 15]: 80
- Plant response rating, Waterhemp [11, 16]: 65
- Velvetleaf plant response rating [12, 20]: 90
- Velvetleaf plant response rating [12, 21]: 100
- Plant response rating, Barnyardgrass [13]: 50
- Wheat plant response rating [14, 20]: 90
- Wheat plant response rating [14, 21]: 100
